Experimental data: patent publication US8367098B2, “Unique combinations of antimicrobial compositions” (The Population Council, Inc., priority 2002, dated 2013)

Tests used:
[1] = in vivo, po; cited from earlier work
[2] = in vivo; cited from earlier work
HIV-1 = details: p24 ELISA and RT; cited from earlier work
[3] = Diffusion of NES through dialysis membrane (HPLC); assay type: physicochemical; details: membrane cutoff 1000, HPLC
Excerpt: We examined diffusion of NES through a dialysis membrane with a molecular weight cutoff of 1000. The molecular weight of NES is 370. […] Results are illustrated in FIG. 10. […] However, the rate of diffusion observed through the dialysis membrane cannot be related to the rate of diffusion that would be observed in the human vagina as the rate of diffusion was dependant on the surface area of the dialysis bag. Conditions in the vagina would be different.
Diffusion of NES from CARRA/NES was investigated by two different methods, membrane dialysis and Ultrafree-15 centrifugation. In the membrane dialysis experiments, the membrane cutoff is 1,000, and diffusion of NES was measured by HPLC. […] In the Ultrafree-15 centrifugation experiments, a Millipore, Ultrafree-15 centrifugal filter and tube assembly was employed, which allows the passage of molecules of a MW<500 pass through; NES MW is 370.

Molecule | effect on HIV-1 production (HIV-1) | also measured
Carrageenan |  | absorption from the gastrointestinal tract [1]: virtually non-existent; toxicity by oral, dermal, and inhalation routes [2]: non-toxic
CC(=O)[O-].CC(=O)[O-].[Cd+2] [cadmium acetate] | inhibited HIV-1 production | 
C=C1C[C@H]2[C@@H]3CCC4=CC(=O)CC[C@@H]4[C@H]3CC[C@]2(C)[C@@]1(OC(C)=O)C(C)=O [NES, 16-methylene-17α-acetoxy-19-norpregn-4-ene-3,20-dione] |  | diffusion of NES through dialysis membrane [3]: diffused from the dialysis bag at a constant rate
[Cl][Hg][Cl] [mercury chloride] | inhibited HIV-1 production | 
[Cl-].[Cl-].[Zn+2] [zinc chloride] | inhibited HIV-1 production | 
